Consider two compounds from US9399663B2, “Competitive inhibitor of GP120” (priority 2014, dated 2016).

“And” between values parts separate entries of the source, which are not always exact repeats. Equal entries are not always repeated. “Also recorded” adds a separate entry of the source. Where two headings read alike, the source gives them in different places. Residues, ends and D or L forms follow the SMILES beside them.

In data set [1] the test system is rat cortical neurons. Kind of data set: Penetration of neuronal membranes (confocal microscopy, transmission electron microscopy). Particulars: 5 μM, 24 hours, FITC-labeled; listed as Helix-A peptide. It counts as cell-based. On the procedure:
FTIR spectra of Helix-A nano. The gray line highlights the Amide region typical of peptide components. c. […] Representative images obtained by transmission electron microscopy showing unmodified MSN and Helix-A nano in intact and open lysosomes, respectively. Bar=500 nm.
Primary cortical neurons: Cortical neuronal cultures were prepared from the cortex of embryonic (E17-18) Sprague Dawley rats (Charles River, Mass.). Cells were seeded onto poly-L-lysine pre-coated plates in Neurobasal Medium containing 2% B27 supplement, […] glutamate, 0.5 mM L-glutamine, and 1% antibiotic-antimycotic solution (INVITROGEN®, Carlsbad, Calif.). Cultures were grown at 37° C. in 5% CO2/95% air for 7 days. Cultures contained ˜5% of non-neuronal cells. […]
Immunocytochemistry of primary neurons: Primary cortical neurons were maintained on glass coverslips for 7 days and fixed in 4% paraformaldehyde/phosphate buffer with 4% sucrose for 20 minutes at room temperature (RT). […] Coverslips were washed with PBS-T and correspondent fluorescence-conjugated secondary antibody (1:2000; INVITROGEN®, CA) were applied for 1 hour at RT. […] Image scale was calibrated and length of MAP-2 positive processes was measured in 10 neurons per field using ImageJ.

Data set [2] deals with T1, tubulin β-3 (TUBB3) (Rattus norvegicus, UniProt Q4QRB4).
T1 construct: Neurons exposed to gp120IIIB were lysated in RIPA buffer; endogenous in cells; host or cells: primary cortical neurons from embryonic (E17-18) Sprague Dawley rats
T1 sequence (P68370 whole entry): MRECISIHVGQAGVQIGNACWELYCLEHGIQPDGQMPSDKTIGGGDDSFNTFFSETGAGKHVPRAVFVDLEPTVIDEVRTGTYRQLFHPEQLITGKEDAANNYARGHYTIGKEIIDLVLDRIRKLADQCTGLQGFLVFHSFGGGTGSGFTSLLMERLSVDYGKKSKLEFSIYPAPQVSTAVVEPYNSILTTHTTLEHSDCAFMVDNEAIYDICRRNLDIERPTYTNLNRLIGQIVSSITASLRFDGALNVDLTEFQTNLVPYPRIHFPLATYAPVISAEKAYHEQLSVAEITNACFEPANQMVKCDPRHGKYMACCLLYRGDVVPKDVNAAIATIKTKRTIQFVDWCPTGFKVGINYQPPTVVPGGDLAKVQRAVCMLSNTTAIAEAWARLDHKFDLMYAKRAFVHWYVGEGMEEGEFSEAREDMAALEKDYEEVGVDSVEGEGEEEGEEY
T1 sequence (Q4QRB4 whole entry): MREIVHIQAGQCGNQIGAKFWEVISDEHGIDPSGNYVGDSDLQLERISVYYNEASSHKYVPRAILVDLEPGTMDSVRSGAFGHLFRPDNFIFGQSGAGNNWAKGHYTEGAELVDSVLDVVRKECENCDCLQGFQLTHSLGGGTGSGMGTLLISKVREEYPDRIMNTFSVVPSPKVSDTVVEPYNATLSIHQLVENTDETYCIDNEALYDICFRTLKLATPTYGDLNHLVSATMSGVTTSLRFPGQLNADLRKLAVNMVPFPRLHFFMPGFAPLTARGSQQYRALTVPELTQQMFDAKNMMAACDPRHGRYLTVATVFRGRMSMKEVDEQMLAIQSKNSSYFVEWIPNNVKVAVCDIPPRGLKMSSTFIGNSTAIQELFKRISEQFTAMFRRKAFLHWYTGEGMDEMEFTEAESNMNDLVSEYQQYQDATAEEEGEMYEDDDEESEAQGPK
Put plainly: LC-MS/MS of gp120 immunocomplex from lysates of gp120-treated neurons. The format is binding. The note with it: anti-gp120 immunoprecipitation. On the procedure:
LC-MS/MS analysis identifies tubulin β-3 (TUBB3) as an interactor of gp120IIIB Top panel: Chromatogram of the whole data set of gp120 interactors. In orange is indicated the peak (retention time=46.45 minutes) associated to peptide ^337[…]^350 (SEQ ID NO: 15) of TUBB3. Bottom panel: The fragmentation spectrum of peptide of TUBB3 is shown to identify TUBB3 among gp120IIIB interactors. The series of y sequence coverage is highlighted.
Liquid chomatography-mass spectrometry (LC-MS/MS): Neurons exposed to gp120IIIB were lysated in RIPA buffer with protease and phosphatase inhibitors (THERMO FISHER […]®) at 4° C. and then incubated with mouse anti-gp120 antibody. Gp120 complex of interacting proteins was eluted from immobilized protein A beads, reduced, alkylated and digested with trypsin. The tryptic digests were analyzed by mass spectrometry, using a LTQ ORBITRAP XL™ hybrid FTMS (Fourier transform mass spectrometer) (THERMO FISHER […]®). Peptide separation was performed with solvent A (0.1% HCOOH in H2O) and solvent B (0.1% formic acid in ACN), using the following gradient: from 5% B for 1 minute to 60% B in 70 minutes. Peptides were analyzed using a precursor mass range of 300-5000 Da. MS/MS analyses were used to query a non-redundant protein database (rat.fasta) using the software SEQUEST™. […]

The subject of data set [3] is assembled MTs. Kind of data set: SPR (BIACORE T200) binding to immobilized assembled microtubules. Also noted: species or system Porcine. The protocol:
(§1) Surface plasmon resonance (SPR). BIACORE® T200™ was used to determine the kinetic parameters for the binding of recombinant TUBB3, tubulin dimer, and assembled microtubules (ligands) to the various isoforms of gp120 or related peptides (analytes). Recombinant TUBB3, tubulin dimer, and assembled MTs were covalently attached to different flow cells of a carboxymethyldextran (CM5) sensor chip by amine coupling. The chip surface was activated for 720 sec at 10 μL/min with of 1:1 mixture of 0.1 M N-Hydroxysuccinimide (NHS) and 0.5 M 1-Ethyl-3-(-3-dimethylaminopropyl)-carbodiimide hydrochloride (EDC). […] After ligand capture, the surfaces were deactivated by injecting 1 M ethanolamine for 720 sec at 10 μL/min. HBS-P (10 mM HEPES, pH7.4, 150 mM NaCl, 0.05% P-20) with 2 mM MgCl2 used as the running buffer. Flow cell 1 on each chip was left empty and used for reference surface. TUBB3 (1040 RU), tubulin dimer (2086 RU), and assembled MTs (990 RU) were captured on the remaining 3 flow cells. Kinetic studies were performed by injecting different concentrations of the analytes in triplicate. The chip surface was regenerated by with 10 mM glycine pH 1.5 injected for 30 sec at a flow rate of 100 μL/min. Each sample was injected for 60 sec (contact time) followed by a dissociation time of 300 sec at a flow rate of 100 μL/min. Data was analyzed with BIACORE® T200™ Evaluation Software (version 1) to determine the equilibrium dissociation constant (KD) from a 1:1 binding model. Binding studies with peptides Helix A and Helix B were done in the same way as described above. Kinetic studies were performed by injecting different concentrations (20 μM, 10 μM, 5 μM, 2.5 μM, 1.25 μM and 0.625 μM) of Helix A and Helix B. Competition experiments with Helix A and Helix B were performed by mixing 100 nM gp120 isoforms with 10 μM of each peptide and injecting over the sensorchip surface.
Recombinant TUBB3, tubulin dimer, and assembled MTs from bovine brains were immobilized on a BIACORE® CM5 chip by amine coupling. […] The kinetics of interaction was analyzed using a BIACORE® T200™ instrument. […]
For orientation: Surface plasmon resonance follows binding to a sensor surface in real time, without labels.

In data set [4] the test system is tubulin dimer. Kind of data set: SPR (BIACORE T200) binding to immobilized tubulin dimer. Also noted: species or system Porcine. On the procedure: as §1, with “TUBB3 (1040 RU), tubulin dimer (2086 RU), and assembled MTs (990 RU) were captured on the remaining 3 flow cells.” left out
Recombinant TUBB3, tubulin dimer, and assembled MTs from bovine brains were immobilized on a BIACORE® CM5 chip by amine coupling. Different concentrations of gp120s (from 3.13 to 100 nM) were injected over the surface in triplicates in each experiment. The kinetics of interaction was analyzed using a BIACORE® T200™ instrument. […]

Data set [5] has as its target T2, recombinant TUBB3 (Homo sapiens, UniProt Q13509).
T2 construct: purchased MyBioSource, San Diego, Calif
Kind of data set: SPR (BIACORE T200) binding to immobilized TUBB3. The note with it: for Kd: Ligand: TUBB3. The protocol:
as §1, with “TUBB3 (1040 RU), tubulin dimer (2086 RU), and assembled MTs (990 RU) were captured on the remaining 3 flow cells.” left out
Recombinant TUBB3, tubulin dimer, and assembled MTs from bovine brains were immobilized on a BIACORE® CM5 chip by amine coupling. Different concentrations of gp120s (from 3.13 to 100 nM) were injected over the surface in triplicates in each experiment. The kinetics of interaction was analyzed using a BIACORE® T200™ instrument. BiaEvaluation software was used to calculate binding affinities based on 1:1 binding model.

Setting [6] is: 100 nM gp120 alone, 60 sec injection.

T2 sequence (Q13509 whole entry): as the sequence (Q4QRB4 whole entry) above, with D441E counted along it

Turning to `CC[C@H](C)[C@H](NC(=O)[C@H](CC(=O)O)NC(=O)[C@H](CCC(=O)O)NC(=O)[C@H](Cc1c[nH]cn1)NC(=O)[C@H](CCSC)NC(=O)[C@H](CCC(N)=O)NC(=O)[C@H](CCC(=O)O)NC(=O)[C@@H](NC(=O)[C@H](CCSC)NC(=O)[C@H](CC(=O)O)NC(=O)[C@@H](N)CC(N)=O)C(C)C)C(=O)N[C@H](C(=O)N[C@@H](CO)C(=O)N[C@@H](CC(C)C)C(=O)N[C@@H](Cc1c[nH]c2ccccc12)C(=O)N[C@@H](CC(=O)O)C(=O)N[C@@H](CCC(N)=O)C(=O)N[C@@H](CO)C(=O)N[C@@H](CC(C)C)C(=O)N[C@@H](CCCCN)C(=O)O)[C@@H](C)CC` [Helix A] (H-NDMVEQMHEDIISLWDQSLK-OH; N-terminus and C-terminus assumed), in data set [1], the “penetration of neuronal cell membrane” value is “could not penetrate; also recorded: not cell-membrane-penetrable”.
As to “gp120IIIB: HIV envelope protein gp120, strain IIIB, purchased from Immunodiagnostics”, the “TUBB3 identified among gp120 interactors (LC-MS/MS)” value in data set [2] is on record as “interactor”. Moreover, the “SPR response (4-1) RU, Fc4: Microtubules 970 RU” value in data set [3] (setting [6]) is 19 RU and 15 RU and 23.2 RU. Further, the dissociation constant (Kd) in data set [3] (Ligand: Assembled MTs, mean of two independent experiments) is 10 nM; in data set [4] (Ligand: Tubulin Dimer, mean of two independent experiments), 12.3 nM; in data set [5] (mean of two independent experiments, read-out: Mean KD), 7.5 nM; in data set [5] (single experiment, gp120 3.13 to 100 nM, 1:1 binding model, read-out: KD), 7.91 nM and 7.05 nM. In data set [4] (setting [6]), the “SPR response (3-1) RU, Fc3: Tubulin Dimer 1900 RU” value was 21 RU and 14 RU and 18.6 RU. For the same compound, the “SPR response (2-1) RU, Fc2: Tubulin β-3 1092 RU” value in data set [5] (setting [6]) was 35 RU and 44 RU.

Broadly, the Kd is the constant that tells how readily two partners part at equilibrium.
